Assay: Cytotoxic effects in vitro on normal lung cells
Type: cell-based
Details: IMR-90 normal lung fibroblast cells; human normal lung fibroblast (IMR-90); read-out: IC50, cytotoxicity towards human normal cells IMR-90

C#Cc1cccc(Nc2ncnc3cc(OCCOC)c(OCCOC)cc23)c1 [Erlotinib, erlotinib, reference compound]
IC50: 39.6 ± 1.15 µM

Reference: paper PMC10408569, “Recruitment of hexahydroquinoline as anticancer scaffold targeting inhibition of wild and mutants EGFR (EGFR^WT, EGFR^T790M, and EGFR^L858R)” (Journal of Enzyme Inhibition and Medicinal Chemistry, 2023)
